The source made the active and inactive calls.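 The calls were made as follows: active = mean IC50 at or below 20 µM; inactive = the rest.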

A word on the IC50: it is the concentration that gives 50% inhibition.

In the experiment the test system is CHO-CHOP cells viability, ATPlite luminescence, 24 h. Nature of the experiment: CHO-CHOP cell viability loss – 24 h exposure, ATPlite luminescence, cytotoxicity control for UPR adaptive arm activator project, SAR follow-up (AID 588567). On the technique in general: In ATP-based viability assays light output follows the ATP content of the culture.
`O=C(Nc1ccc(F)cc1)c1cc(-c2ccncc2)nc2ccccc12`: the IC50 was > 80 µM (inactive).
For `Cc1ccc(NC(=O)c2cc(-c3ccncc3)nc3ccccc23)cc1`, the IC50 is > 80 µM (inactive).
The figure for `O=C(Nc1ccc(Br)c(C(F)(F)F)c1)c1cc(-c2ccncc2)nc2ccccc12` is 50.1 µM (inactive); for `O=C(Nc1ccc(C(F)(F)F)cc1)c1cc(-c2ccncc2)nc2ccccc12` it is 61.3 µM (inactive); for `Cc1nc(Nc2nc(-c3ccccc3)cc(=O)[nH]2)nc2ccccc12` it is 30.2 µM (inactive).
As for `O=C(Nc1ccc(Cl)cc1)c1cc(-c2ccncc2)nc2ccccc12`, the IC50 is 63.7 µM (inactive).
The figure for `Cc1cc(Br)cc(NC(=O)c2cc(-c3ccncc3)nc3ccccc23)c1` is 64.8 µM (inactive).

For the origin of these results see PubChem BioAssay AID588567 (Sanford-Burnham Center for Chemical Genomics, 2011).
